One test deals with L929 cells. Put plainly: Inhibition of TNF-α-induced programmed necrosis of L929 cells (CellTiter-Glo). It counts as cell-based. Particulars: 30 ng/ml mouse TNF-α + 15 μM Z-VAD, 6 hours. As for the experimental part: The L929 cell line used in the following test examples was from ATCC, number: CCL-1, batch number: 70001022, culture medium: MEM+10% FBS+1% PS.
(§1) The reagents used, suppliers and product numbers of the reagents were as follows: RPMI-1640, Gibco, 11875-093; FBS, Gibco, 10099-141; Trypsin-EDTA, Gibco, 25200-072; PS, Gibco, 15140-122; CellTiter Glo , Progema, G7573; DMSO, VWR AMRESCO, 0231-500ML; TNF-α protein (human, recombinant), Peprotech, 300-01A; Q-VD-Oph, MCE, HY-12305; V-shaped bottom plate, Corning, 3894; 384-well low-flange white flat-bottom microplate, Corning, 3570; RIPK1, Eurofins, 16-022; MOPS, BDH, 441644J; EDTA, Sigma, E5134; Myelin basic protein, Sigma, M1891-25.00 MG; Magnesium acetate, Merck, DU008026; ATP (non-radioactive label), Sigma, A-7699; ATP (radioactive label), Hartmann Analytic, DU008054; Phosphoric acid, Metlab, DU003000; Z-VAD: Shanghai Yuang Chemical Industry, YA02401.
The compounds to be tested were dissolved in DMSO to prepare a 10 mM stock solution, and diluted 3.16 times with DMSO into a series of concentration gradients, and then dilute 100 times to prepare a working solution. 10000 L929 cells/well were seeded in a 384-well white plate. Compounds of corresponding concentrations were added to each well and mixed evenly with the cells. At the same time, 30 ng/ml mouse TNF-α and 15 μM Z-VAD were added to induce programmed necrosis of the cells, the final concentration of DMSO was 0.2%. The cells were placed at 37° C., 5% CO2 incubator for 6 hours. CellTiter-Glo reagent was used for detection, and the chemiluminescence reading was detected using a microplate reader after sufficient lysis reaction. The test results were calculated using the formula SR (%)=(RLU compound−RLU blank)/(RLU high control−RLU blank)×100%. The survival rate and the final concentration of the corresponding compound were drawn into a curve and fitted using four parameters. Inhibitory IC50 on TNF-α-induced cell necrosis of the compounds were calculated.

For the next test, the system named is U937 cells. Kind of test: Inhibition of TNF-α-induced programmed necrosis of U937 cells (CellTiter-Glo). It counts as cell-based. Particulars: U-937, human TNF-α + Q-VD-Oph, 48 hours. How it is done: The U937 cell line used in the following test examples was from ATCC, number: CRL-1593.2, batch number: 63479999, culture medium: RPMI-1640+10% FBS.
as §1
The compounds to be tested were dissolved in DMSO and diluted with DMSO into a series of concentration gradients. 5000 U937 cells/well were seeded in a 384-well white plate. Compounds of corresponding concentrations were added to each well and mixed evenly with the cells. At the same time, human TNF-a and Q-VD-Oph were added to induce programmed necrosis of the cells. The cells were placed at 37° C., 5% CO2 incubator for 48 hours. CellTiter-Glo reagent was used for detection, and the chemiluminescence reading was detected using a microplate reader after sufficient lysis reaction. The test results were calculated using the formula SR (%)=(RLU compound−RLU blank)/(RLU high control−RLU blank)×100%. The survival rate and the final concentration of the corresponding compound were drawn into a curve and fitted using four parameters. Inhibitory IC50 on TNF-α-induced cell necrosis of the compounds were calculated.

Another test addresses RIPK1 (Homo sapiens (Human), UniProt Q13546). Put plainly: Inhibitory activity against RIPK1 enzyme (33P-ATP, MBP substrate). Particulars: 36 nM RIPK1, 0.33 mg/ml MBP, 155 μM ATP, 2 hours, room temperature. It is filed as biochemical. As for the experimental part: as §1
The compound to be tested was dissolved in DMSO to prepare a 10 mM stock solution, diluted 3.16 times with DMSO into a series of concentration gradients, and then MOPS pH 7.0 buffer solution was used to dilute 50 times to prepare a working solution, and mixed well with 36 nM RIPK1 (final concentration), 0.33 mg/ml substrate MBP. Afterwards, 10 mM magnesium ions and 155 μM phosphorus 33 isotope-labeled ATP were added to react, The final concentration of DMSO was 2%. After the reaction was proceeded at room temperature for 2 hours, phosphoric acid was added to terminate. The final reaction system was processed and detected using a liquid scintillation counter. After the test results are subtracted from the blank control and compared with the reading value of the control group to convert to the activity percentage, which was plotted as a curve with the final concentration of the corresponding compound, and four-parameter fitting was used to obtain the IC50 of the compound that inhibits RIPK1 enzyme activity.

Consider 3 molecules from US20240294523A1, “HETEROCYCLIC LACTAM COMPOUND, AND PREPARATION METHOD THEREFOR AND PHARMACEUTICAL USE THEREOF” (Genfleet Therapeutics (Shanghai) Inc., priority 2021, published 2024).

Structures are written as SMILES.

The term IC50 denotes the concentration that gives 50% inhibition.

Chain of RIPK1 (Q13546 whole entry): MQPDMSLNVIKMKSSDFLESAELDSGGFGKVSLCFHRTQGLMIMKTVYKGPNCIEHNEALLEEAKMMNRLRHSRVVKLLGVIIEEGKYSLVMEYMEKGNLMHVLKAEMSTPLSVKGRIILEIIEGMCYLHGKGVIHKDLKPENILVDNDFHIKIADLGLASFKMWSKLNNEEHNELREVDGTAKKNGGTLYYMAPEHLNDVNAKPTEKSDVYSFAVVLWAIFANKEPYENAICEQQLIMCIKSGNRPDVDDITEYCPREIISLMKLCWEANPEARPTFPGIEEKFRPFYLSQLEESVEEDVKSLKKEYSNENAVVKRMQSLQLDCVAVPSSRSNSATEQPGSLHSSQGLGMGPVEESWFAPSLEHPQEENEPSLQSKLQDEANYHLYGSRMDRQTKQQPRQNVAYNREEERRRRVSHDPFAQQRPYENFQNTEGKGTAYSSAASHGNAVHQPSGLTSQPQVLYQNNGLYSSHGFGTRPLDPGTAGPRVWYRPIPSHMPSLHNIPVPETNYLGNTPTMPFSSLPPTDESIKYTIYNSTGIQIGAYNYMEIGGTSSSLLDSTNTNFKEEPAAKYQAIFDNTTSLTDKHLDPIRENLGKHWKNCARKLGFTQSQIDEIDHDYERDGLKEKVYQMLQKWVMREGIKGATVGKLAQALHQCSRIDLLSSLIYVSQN

Consider `C[C@H](C(F)F)N1CCc2c(nn(Cc3c(F)cccc3F)c2Cl)C1=O` (single isomer, unassigned) [Compound Z9-2], for which the values for the IC50 in the test on L929 cells, with U937 cells and at RIPK1 were 450 nM, 42.8 nM and 89 nM, respectively.

For `C[C@@H](C(F)F)N1CCc2c(nn(Cc3c(F)cccc3F)c2Br)C1=O` (single isomer, unassigned) [Compound Z24-2], the concentration for half-maximal inhibition (IC50) was 348 nM with L929 cells and 29.7 nM with U937 cells.

As to `CC(C(F)F)N1CCc2c(nn(Cc3c(F)cccc3F)c2Cl)C1=O` (stereo not shown) [Compound Z9, 3-chloro-2-(2,6-difluorobenzyl)-6-(1,1-difluoropropan-2-yl)-2,4,5,6-tetrahydro-7H-pyrazolo[3,4-c]pyridin-7-one], the results for the IC50 in the test with L929 cells and with U937 cells were 600 nM and 57.1 nM, respectively.
